Experiments:
4T1 cells [1] = assay: Anoikis assay (Poly-HEMA); assay type: cell-based, mouse; details: 48 hours
Description: 96-well plates were coated with 50 ul of sterile 95% Ethanol or 50 ul of 12 mg/ml Poly-HEMA in 95% Ethanol (Sigma-Aldrich) and allowed to dry for 72 hours under the hood as previously described. (See Phung et al. (2011) Rapid generation of in vitro multicellular spheroids for the study of monoclonal antibody therapy. J Cancer 2: 507-514). Poly-HEMA prevents cells from attaching to the plastic. Following, 4T1 shControl, sh413, sh413 WT, or sh413 C3A cells were plated at 20,000 cells/well. Plates were centrifuged at 1,200 g for 10 minutes and then incubated at 37° C. for 48 hours. Cells were collected to test cell viability using trypan blue (Life technologies) and an MTT assay (Life technologies). The rest of the cells were pelleted and kept at −20° C. until used for RNA and protein isolation.

4T1 cells [2] = assay: MTT assay, 4T1; assay type: cell-based, mouse
Description: A total of 5,000 cells stably expressing sh137, sh413, or shControl were plated in 96-well plates. Cells were then incubated with 5 mg/ml MTT reagent for 3.5 hours followed by addition of MTT solvent (0.1% NP-40 and 4 mM HCl in isopropanol) and rocking for 15 minutes. Absorbance at 590 nm was read using a Tecan Infinite M200 Pro plate reader.

mammary cancer cells = assay: Transformation assay (soft agar colony formation); assay type: cell-based, mouse; details: compared to shControl
Description: Agar was mixed in Roswell Park Memorial Institute medium (RPMI) with 20% FBS. A total of 500 μl of 0.5% agar was added to 24-well plate and allowed to solidify. Cells were plated at 1,250 cells/well in 500 μl of 0.35% agarose. Some 250 μl of the appropriate growth medium was added on top of the agarose layer. Growth medium was replaced twice a week. Colonies were stained with crystal violet and imaged. Colonies from five different fields were counted and averaged.

4T1 cells [3] = assay: Orthotopic implantation of 4T1 cells in BALB/c mice; assay type: in vivo
Description: (§1) Five-week-old C57BL/6NCr and BALB/cAnNCr female mice were used. Mice were sacrificed when they became moribund. Tumor volume (TV) was calculated as: TV=0.5(length*width2). Tumor latency was calculated as the number of tumor-free injected mice/number of injected mice×100. To assess morbidity, the following clinical score ranking was used: (0) no abnormal clinical signs, (1) ruffled fur but lively, (2) ruffled fur, activity level slowing, sick, (3) ruffled fur, eyes squeezed shut, hunched, hardly moving, very sick, (4) moribund and (5) dead. Experiments involving mice were approved by the University of Iowa Animal Care and Use Committee (IACUC).
(§2) Prior to imaging, mice were anesthetized, weighed and injected intraperitoneally with D-luciferin. Mice were imaged using the Xenogen IVIS three dimensional optical imaging system (Caliper Life Sciences, Hopkinton, Mass., USA). Luciferase was quantified with Living Image Software (Caliper Life Sciences).

E0771 cells [4] = assay: MEF adhesion assay; assay type: cell-based, mouse; details: luciferase bioluminescence and PKH67Green
Description: Murine embryonic fibroblasts (MEFs) were grown to confluency in 6-well plates. Equivalent numbers (150,000) of cancer cells labeled with PKH67Green fluorescent cell linker, following the manufacturer's instructions (Sigma-Aldrich), were added to the MEF monolayer and allowed to incubate for 8 hours. Non-adhered cells were washed off and adhered cells imaged. Image J (NIH, Bethesda, Md., USA) was used to quantify the number of PKH67Greenpositive cells. In parallel, luciferase-expressing cancer cells were added to MEFs monolayers in 6-well plates for 8 hours. Non-adhered cells were washed off and adhered cells were treated with D-luciferin and imaged using IVIS. For luciferase assay, cancer cells plated in 96-well plate were used for quantitation of luciferase bioluminescence.

E0771 and 4T1 cells = assay: BrdU assay; assay type: cell-based, mouse
Description: A total of 5,000 cells were plated in 96-well plates for 24 hours. Bromodeoxyuridine or 5-bromo-2′-deoxyuridine (BrdU) (Calbiochem, Billerica, Mass., USA) assay was carried out according to the manufacturer's instructions. Absorbance at 450 nm was read using a Tecan Infinite plate reader. In parallel, 150,000 cells were plated in 24-well plates for 24 hours. Cells were incubated with BrdU label (1:2000) for 20 hours, treated with a fixative/denaturing solution (30 minutes) and incubated with an anti-BrdU antibody (1:1000) and rat anti-mouse BST-2 antibody (1:200, eBioscience) for 1 hour at room temperature. Cells were washed and incubated with Alexa Fluor 594 anti-rat (Invitrogen, Waltham, Mass., USA) and Alexa Fluor 488 anti-mouse (Invitrogen) secondary antibodies for 30 minutes at room temperature. Cells were stained with 4′,6-diamidino-2-phenylindole (DAPI)-containing Vectashield (Vector Laboratories, Burlingame, Calif., USA) and imaged using a Zeiss 710 confocal microscope (Carl Zeiss, Oberkochen, Germany). Images were processed using Image J software. BrdU label, fixative/denaturing solution, and anti-BrdU antibody were from BrdU (Calbiochem) assay.

E0771 cells [5] = assay: Orthotopic implantation of E0771 cells in C57BL/6 mice; assay type: in vivo
Description: as §1, §2

4T1 cells [6] = assay: Tail vein injection of 4T1 cells, lung metastasis; assay type: in vivo, BALB/c mice
Description: Metastatic tumors were generated by implanting 300,000 4T1 shControl, sh413 or sh413 WT cells in 100 μl of PBS via tail vein in five-week-old female mice. Prior to imaging, mice were anesthetized, weighed and injected intraperitoneally with D-luciferin. Mice were imaged using the Xenogen IVIS three-dimensional optical imaging system (Caliper Life Sciences). Moreover, lung metastatic tumors were imaged post-mortem and counted grossly. Moreover, spleens from shControl, sh413, or sh413 WT injected mice were isolated and weighted. Average splenic weight was calculated from 3 different mice and plotted in a bar graph. Finally, Kaplan-Meier survival plots were generated and analyzed using the Gehan-Breslow-Wilcoxon test (GraphPrism) (FIG. 44).
Protein from lungs of mice injected with 4T1 shControl, sh413, or sh413 WT cells via tail vein was isolated to perform western blots blotting for total levels of BIM, levels of activated Caspase-3 (Cleaved Caspase-3) and GAPDH. Bands from 3 different western blots were normalized to GAPDH, quantified, averaged and depicted as bar graphs (FIG. 45).

For “sh413: BST-2-targeting shRNA (SEQ ID NO:4), delivered by lentiviral particles (CCGGGCTTGAGAATGAAGTCACGAACTCGAGTTCGTGACTTCATTCTCAAGCTTTTTG)”, the susceptibility to anoikis (4T1 cells [1]) was “renders cells susceptible to anoikis”, the “cell viability (MTT)” value (4T1 cells [2]) was “increased cell viability” and the “colony numbers in soft agar” value (mammary cancer cells) was “reduced colony numbers”. For the same substance, the “median overall survival (OS)” value (4T1 cells [3]; Kaplan-Meier) was “undefined”, the “survival area under the curve (AUC)” value (4T1 cells [3]; Kaplan-Meier) was 3,900 and the “number of tumors in intestine and mesentery” value (4T1 cells [3]; average of all mice) was “six”. For the same substance, the mammary tumor latency (4T1 cells [3]; compared to shControl cells) was “increased mammary tumor latency”, the “tumor volume over time” value (4T1 cells [3]; compared to shControl tumors) was “significantly lower” and the “mice survived to end of experiment” value (4T1 cells [3]; day 45) was 14 out of 15. For the same substance, the “incidence of metastases to the liver” value (4T1 cells [3]; mouse, in vivo) was 46%, the “incidence of metastases to the lung” value (4T1 cells [3]; mouse, in vivo) was 40% and the “mice spared of ascites and splenomegaly” value (4T1 cells [3]; mouse, in vivo) was 14 out of 15. The average tumor mass (4T1 cells [3]; n=15, at necropsy) was 0.37 g, the “cancer cell adhesion to MEF” value (E0771 cells [4]) was “decreased the ability of cancer cells to adhere to supporting cells” and the “cell proliferation (BrdU incorporation)” value (E0771 and 4T1 cells) was “no effect on cell proliferation”. The “median overall survival (OS)” value (E0771 cells [5]; Kaplan-Meier) was 23 days, the “survival area under the curve (AUC)” value (E0771 cells [5]; Kaplan-Meier) was 2,679 and the malignant ascites (E0771 cells [5]; n=10) was “prevented the development of malignant ascites”. For the same substance, the “levels of pro-apoptotic factors (BIM, Caspase-3) in the lungs” value (4T1 cells [6]; tail vein injected mice) was “elevates levels of pro-apoptotic factors” and the lung metastasis (4T1 cells [6]; tail vein, 42 days) was “decreases lung metastasis in vivo”.
